Here are results for 1 compound from BindingDB's records for patent US20240092761 (Iambic Therapeutics, 2024).

Assay [1] has as its target Cyclin-dependent kinase/G2/mitotic-specific cyclin- 1 (Homo sapiens, UniProt P06493). The assay is described as follows: CDK1/Cyclin B1 ADP-Glo Kinase Assay. On the procedure:
The luminescent signal generated is proportional to the ADP concentration produced and is correlated with the kinase activity. CDK1/Cyclin B1 was purchased from Carna (Cat 04-102). Typical reaction solutions (10 uL final reaction volume) contained 2% DMSO (f inhibitor), 10 mM MgCl2, 1 mM EGTA, 0.05% BSA, 2 mM DTT, 80 uM ATP (ATP Km=78.6 uM), 0.01% Brig-35, 0.75 uM substrate, and 4.917 nM CDK1/Cyclin Bl enzyme complex in 50 mM HEPES buffer at pH 7.5. The assay was initiated with the addition of ATP-containing substrate solution, following a 30-minute pre-incubation of enzyme and inhibitor at room temperature in the reaction mixture. The reaction was stopped after 90 minutes at room temperature by the addition of 10 uL of ADP-GLO Reagent. After a 90 minute incubation, 20 uL of Kinase Detection Reagent was added. Samples were incubated for 40 minutes, after which plate well luminescence was measured on a Envision microplate reader.
(In general: ADP-Glo turns the ADP formed in a reaction into a luminescent signal.)

In assay [2] the target is Cyclin-dependent kinase 2/G1/S-specific cyclin-E1 (Homo sapiens, UniProt P24941). The assay is described as follows: CDK2/Cyclin E1 Full Length ADP-Glo Kinase Assay. On the procedure: ADP-Glo is performed in 2 steps upon completion of kinase reaction: a combined termination of kinase reaction and depletion of remaining ATP in the first step, and conversion of generated ADP to ATP and the newly produced ATP to light output using luciferase/luciferin reaction in the second step. The luminescent signal generated is proportional to the ADP concentration produced and is correlated with the kinase activity. CDK2/Cyclin E1 was purchased from Eurofins (Cat 14-475M). Typical reaction solutions (10 uL final reaction volume) contained 2% DMSO (f inhibitor), 10 mM MgCI2, 1 mM EGTA, 0.05% BSA, 2 mM DTT, 20 uM ATP (ATP Km=64.78 uM), 0.01% Brig-35, 0.75 uM substrate, and 0.328 nM wild-type full length CDK2/Cyclin E1 enzyme complex in 50 mM HEPES buffer at pH 7.5. The assay was initiated with the addition of ATP-containing substrate solution, following a 30-minute pre-incubation of enzyme and inhibitor at room temperature in the reaction mixture. The reaction was stopped after 90 minutes at room temperature by the addition of 10 uL of ADP-GLO Reagent. After a 90 minute incubation, 20 uL of Kinase Detection Reagent was added. Samples were incubated for 40 minutes, after which plate well luminescence was measured on a Envision microplate reader.

Assay [3] has as its target Cyclin-dependent kinase 4/G1/S-specific cyclin-D1 (Homo sapiens, UniProt P11802). Nature of the assay: CDK4/Cyclin D1 Mobility Shift Assay (MSA). On the procedure: CDK4/Cyclin D1 catalyzes the production of ADP from ATP that accompanies the phosphoryl transfer to the substrate peptide 5-FAM-Dyrktide (5-FAM-RRRFRPASPLRGPPK) (Perkin Elmer Peptide 34). The mobility shift assay (MSA) electrophoretically separates the fluorescently labelled peptides (substrate and phosphorylated product) following the kinase reaction. Both substrate and product are measured, and the ratio of these values is used to generate % conversion of substrate to product by the LabChip EZ Reader. Typical reaction solutions contained 2% DMSO (+/−inhibitor), 10 mM MgCl2, 1 mM EGTA, 0.05% BSA, 2 mM DTT, 0.2 mM ATP, 0.01% Brig-35, 1.5 uM 5-FAM-Dyrktide, 2.5 nM CDK4/Cyclin D1 in 50 mM HEPES buffer at pH 7.5. The reaction was initiated with the addition of substrate solution, following a 30-minute pre-incubation of enzyme and inhibitor at 22° C. in the reaction mix. The reaction was stopped after 180 minutes by the addition of 75 uL of 500 mM EDTA and measured on a Perkin Elmer EZ reader instrument.

Chain of Cyclin-dependent kinase 4/G1/S-specific cyclin-D1 (P11802 whole entry): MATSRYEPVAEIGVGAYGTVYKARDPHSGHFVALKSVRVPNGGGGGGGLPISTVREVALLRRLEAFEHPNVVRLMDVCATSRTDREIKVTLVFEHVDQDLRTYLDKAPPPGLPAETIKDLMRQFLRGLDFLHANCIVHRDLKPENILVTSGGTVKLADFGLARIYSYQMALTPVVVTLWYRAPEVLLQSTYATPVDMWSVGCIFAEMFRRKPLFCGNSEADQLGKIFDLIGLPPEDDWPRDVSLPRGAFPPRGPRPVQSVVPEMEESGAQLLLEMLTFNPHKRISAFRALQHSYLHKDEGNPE
Chain of Cyclin-dependent kinase 4/G1/S-specific cyclin-D1 (P24385 whole entry, further chain): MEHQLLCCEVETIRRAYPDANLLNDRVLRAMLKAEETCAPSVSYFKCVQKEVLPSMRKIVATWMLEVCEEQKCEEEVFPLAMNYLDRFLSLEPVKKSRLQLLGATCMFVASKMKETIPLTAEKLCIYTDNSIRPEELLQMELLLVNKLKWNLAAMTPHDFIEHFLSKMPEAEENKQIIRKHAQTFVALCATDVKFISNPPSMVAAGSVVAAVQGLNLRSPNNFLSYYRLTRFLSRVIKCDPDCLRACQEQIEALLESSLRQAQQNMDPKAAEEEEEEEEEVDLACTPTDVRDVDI
Chain of Cyclin-dependent kinase/G2/mitotic-specific cyclin- 1 (P06493 whole entry): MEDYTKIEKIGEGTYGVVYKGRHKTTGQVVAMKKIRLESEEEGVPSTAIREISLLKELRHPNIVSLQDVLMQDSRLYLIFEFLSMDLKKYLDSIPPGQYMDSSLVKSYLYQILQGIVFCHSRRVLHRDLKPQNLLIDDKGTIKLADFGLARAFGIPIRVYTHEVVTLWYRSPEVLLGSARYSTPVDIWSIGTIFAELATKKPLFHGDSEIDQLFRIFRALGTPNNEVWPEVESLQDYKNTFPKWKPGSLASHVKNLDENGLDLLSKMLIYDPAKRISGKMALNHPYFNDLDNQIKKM
Chain of Cyclin-dependent kinase/G2/mitotic-specific cyclin- 1 (P14635 whole entry, further chain): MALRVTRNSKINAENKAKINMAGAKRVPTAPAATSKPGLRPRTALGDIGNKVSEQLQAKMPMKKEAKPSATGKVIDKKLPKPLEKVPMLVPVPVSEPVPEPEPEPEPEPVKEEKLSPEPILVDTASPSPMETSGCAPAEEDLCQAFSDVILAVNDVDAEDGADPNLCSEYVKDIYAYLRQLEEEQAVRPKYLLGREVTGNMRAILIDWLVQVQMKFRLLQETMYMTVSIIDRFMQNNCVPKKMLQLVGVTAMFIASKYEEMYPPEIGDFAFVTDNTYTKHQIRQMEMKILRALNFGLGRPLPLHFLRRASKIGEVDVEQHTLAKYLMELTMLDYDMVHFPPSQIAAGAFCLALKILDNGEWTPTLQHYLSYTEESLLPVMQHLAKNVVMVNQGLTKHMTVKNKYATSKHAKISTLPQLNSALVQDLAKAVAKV

The IC50 is the point on the concentration scale where inhibition reaches its midpoint. In the case of `CS(=O)(=O)N1CCC(Nc2ncc3cccc(N4CCC(N5CCC5)C4)c3n2)CC1` (stereo not drawn) [US20240092761, Compound 32], the results for the IC50 in assay [1], in assay [2] and in assay [3] were above 2000 nM, below 200 nM and 200 to 500 nM, respectively.
